Assay [1] deals with T1, PEP derived from bovine brain (Bos taurus, UniProt Q9XTA2).
T1 construct: PEP derived from bovine brain; from tissue; host or cells: bovine brain
T1 sequence (Q9XTA2 1-710): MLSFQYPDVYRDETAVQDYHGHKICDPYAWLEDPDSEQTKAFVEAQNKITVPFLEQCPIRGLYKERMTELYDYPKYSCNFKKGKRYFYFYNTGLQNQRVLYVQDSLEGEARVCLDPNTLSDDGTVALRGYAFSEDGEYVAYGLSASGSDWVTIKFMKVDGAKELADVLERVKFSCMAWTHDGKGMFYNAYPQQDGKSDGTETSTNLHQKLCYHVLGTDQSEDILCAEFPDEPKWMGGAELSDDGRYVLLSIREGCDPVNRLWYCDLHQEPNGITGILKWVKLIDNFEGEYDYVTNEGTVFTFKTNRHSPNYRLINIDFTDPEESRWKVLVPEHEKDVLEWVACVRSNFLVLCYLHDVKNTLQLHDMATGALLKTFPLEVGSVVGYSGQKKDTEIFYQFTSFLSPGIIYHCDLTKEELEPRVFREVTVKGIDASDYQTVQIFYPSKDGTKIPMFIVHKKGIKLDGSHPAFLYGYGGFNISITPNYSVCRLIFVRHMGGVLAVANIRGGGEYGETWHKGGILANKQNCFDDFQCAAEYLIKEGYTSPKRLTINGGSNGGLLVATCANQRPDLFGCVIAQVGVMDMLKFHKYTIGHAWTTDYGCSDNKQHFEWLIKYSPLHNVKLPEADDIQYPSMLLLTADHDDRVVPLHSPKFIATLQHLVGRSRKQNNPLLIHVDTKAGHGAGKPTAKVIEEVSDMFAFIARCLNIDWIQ
Description: Measurement of PEP inhibitory action (substrate Z-Gly-Pro-β-naphtyl amide). The following applies: pH 7.0, 37°C, read-out: PEP Inhibition IC50. Format: biochemical. As for the experimental part:
Those two types of cells were cultured in 200 µl/well of RPMI1640 medium added with 10% FCS in a 96-well microplate. The PEP inhibitors of this invention and comparative product, which are shown in Table 1, were separately added. The cells were cultured at 37°C for 18 hours in a capneic incubator. Formation of syncytia was observed. The PEP inhibitory action was measured according to the following method.
Z-Gly-Pro-β-naphtyl amide was used as a substrate and the inhibitory action against PEP derived from bovine brain was measured.
0.7 ml of 20 mM-tris HCl buffer (pH 7.0) containing 10 mM of EDTA and 10 mM of 2-mercaptoethanol was added with 100 µl of PEP (about 0.14 u/ml) and 100 µl of a test solution which had been prepared to have a predetermined concentration (0, 10⁻⁹ - 10⁻⁴M), and subjected to preincubation at 37°C for 5 minutes. To this was added various concentrations of a substrate which had been dissolved in 100 µl of 40% dioxane followed by incubation at 37°C for 15 minutes to proceed an exzymatic reaction. The reaction was terminated by the use of 25% trichloroacetic acid. The solution was centrifugally separated at 3,000 rpm for 10 minutes to obtain 0.5 ml of a supernatent, to which was added 0.5 ml of 0.1% nitrous acid, and 3 minutes after, 0.05% N-(1-naphtyl)ethylendediaminedihydrochloride ethanol solution. After allowing the mixture to stand at 37°C for 25 minutes, the absorbance at 570 nm was measured. […] Enzyme activity unit (µmol/min/ml) = ΔOD x 0.42 x dilution ratio

Assay [2] has as its system LAV-1 infected CEM cells (CEM/LAV-1) and MOLT4 Clone 8. Description: Inhibition of syncytia formation in mixed culture of HIV-infected and non-infected T cells. Format: cell-based. More on the design: key: -: Absolutely no inhibition of syncytium formation.; ±: Slight inhibition of syncytium formation.; +: Partial inhibition of syncytium formation.; ++: Substantial inhibition of syncytium formation.; +++: Complete inhibition of syncytium formation. The following applies: 1 mM; CEM/LAV-1 + MOLT4 Clone 8, 37°C, 18 hours. From the text: When HIV-infected T cells and non-infected T cells are mixed in a test tube, the infected T cells and non-infected T cells undergo fusion and form giant cells. This "syncytium forming phenomenon" has already been known to be observed upon their mixing. This phenomenon is characteristic to intercellular infection from HIV and is regarded as an evidence for HIV infection of T cells.
LAV-1 infected CEM cells (CEM/LAV-1, 2 x 10⁴) and MOLT4 Clone 8 (1 x 10⁵) were used as HIV-infected cells and non-infected cells, respectively. Those two types of cells were cultured in 200 µl/well of RPMI1640 medium added with 10% FCS in a 96-well microplate. The PEP inhibitors of this invention and comparative product, which are shown in Table 1, were separately added. The cells were cultured at 37°C for 18 hours in a capneic incubator. Formation of syncytia was observed. The PEP inhibitory action was measured according to the following method.

Square brackets hold non-standard residues; d marks the D form. Peptide text beside a SMILES is read from it. * marks the point of attachment. Cbz = O=C(OCc1ccccc1)*; Thz = O=C(O)[CH]1CSCN1

What is called IC50 is the concentration that inhibits the measured activity by half. For `O=C(C1CSCN1C(=O)OCc1ccccc1)N1CCCC1` (stereo not drawn), in assay [1], the IC50 worked out at 0.16 µM.

`O=CC1CSCN1C(=O)C1CCCN1C(=O)OCc1ccccc1` (stereo not drawn) (Cbz-Pro-[Thz]-aldehyde; configuration not given here): in assay [2], the “Inhibition of Syncytia Formation” value is given as “++”. Besides, in assay [1], the IC50 was 0.001 µM.

Turning to `O=C(C1CSCN1C(=O)OCc1ccccc1)N1CCSC1` (stereo not drawn), the “Inhibition of Syncytia Formation” value in assay [2] was “+++”. Besides, in assay [1], the concentration for half-maximal inhibition (IC50) stood at 0.00014 µM.

In the case of `O=C(C1CCCN1C(=O)OCc1ccccc1)N1CCCCC1` (stereo not drawn), the “Inhibition of Syncytia Formation” value in assay [2] is on record as “±”. Further, in assay [1], the 50% inhibitory concentration (IC50) was greater than 1000 µM.

Regarding `O=CC1CSCN1C(=O)C1CSCN1C(=O)OCc1ccccc1` (stereo not drawn) (Cbz-[Thz]-[Thz]-aldehyde; configuration not given here), in assay [2], the “Inhibition of Syncytia Formation” value is “+++”.

As for `O=C(C1CCCN1C(=O)OCc1ccccc1)N1CCSC1` (stereo not drawn), the “Inhibition of Syncytia Formation” value in assay [2] is recorded as “++”. Besides, in assay [1], the IC50 was 0.0046 µM.

As for `O=C(C1CSCN1C(=O)OCc1ccccc1)N1CCOCC1` (stereo not drawn), the IC50 in assay [1] turned out to be 0.54 µM.

In the case of `O=C(C1CSCN1)N1CCSC1` (stereo not drawn) [comparative product, reference compound], in assay [1], the IC50 was greater than 1000 µM.

(Values after EP0355409A2, “Use of prolylendopeptidase inhibitors in the treatment of AIDS” (KABUSHIKI KAISHA YAKULT HONSHA, priority 1988, dated 1990).)
